According to ChEMBL document CHEMBL5576121, “Halogen Bonding Hot Spots as a Constraint in Virtual Screening: A Case Study of 5-HT7R” (J Med Chem, 2024):

Biological target: 5-hydroxytryptamine receptor 7 (Homo sapiens, UniProt P34969)
Experiment: Displacement of [3H]-5-CT from human 5-HT7b receptor expressed in HEK293 cell membranes incubated for 1 hr by Microbeta Topcount instrument based analysis

Chain of 5-hydroxytryptamine receptor 7 (P34969 whole entry): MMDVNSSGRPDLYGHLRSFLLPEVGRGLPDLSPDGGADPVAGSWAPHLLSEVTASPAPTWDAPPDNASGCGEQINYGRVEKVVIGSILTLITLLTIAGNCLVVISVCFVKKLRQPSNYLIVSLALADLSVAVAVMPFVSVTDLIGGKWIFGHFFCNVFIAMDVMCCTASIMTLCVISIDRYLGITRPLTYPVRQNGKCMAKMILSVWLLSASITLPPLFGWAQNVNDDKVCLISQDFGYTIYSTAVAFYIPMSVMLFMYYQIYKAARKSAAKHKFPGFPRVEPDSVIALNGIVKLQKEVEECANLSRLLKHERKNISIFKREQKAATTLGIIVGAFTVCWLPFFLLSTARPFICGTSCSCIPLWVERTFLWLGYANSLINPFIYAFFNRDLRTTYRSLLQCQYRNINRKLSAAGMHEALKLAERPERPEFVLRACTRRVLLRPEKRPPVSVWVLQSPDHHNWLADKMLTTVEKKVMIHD

**Q.** For `OC(COc1ccc2c(c1)CCC2)CN1CCN(c2cccc(Cl)c2)CC1` (stereo not drawn), which Ki is on record?
**A.** Its Ki is 285 nM.

**Q.** `CCCc1ccc(OCC(O)CN2CCN(c3ccccc3)CC2)cc1` (stereo not drawn) was tested. Which Ki did it give?
**A.** Its Ki is 1090 nM.

**Q.** Which Ki does the source give for `CCC(=O)N1c2ccccc2CC1C(=O)NCCCN1CCN(c2ccccc2)CC1` (stereo not drawn) here?
**A.** The Ki was 7130 nM.

**Q.** How did the Ki turn out when `CCC(=O)N1c2ccccc2CC1C(=O)NCCCN1CCN(c2cccc(Cl)c2)CC1` (stereo not drawn) was run?
**A.** Its Ki is 687 nM.

**Q.** With `CC(=O)c1ccc(OCC(O)CN2CCN(c3ccc(Cl)cc3)CC2)cc1` (stereo not drawn) as the molecule, how does the Ki read?
**A.** Its Ki is 7130 nM.

**Q.** For `OC(COc1ccc2c(c1)CCC2)CN1CCN(c2ccccc2)CC1` (stereo not drawn), which Ki is on record?
**A.** The Ki was 587 nM.

**Q.** Which Ki does the source give for `CC(=O)c1ccc(OCC(O)CN2CCN(c3ccccc3Cl)CC2)cc1` (stereo not drawn) here?
**A.** The Ki was 4670 nM.

**Q.** `CCCc1ccc(OCC(O)CN2CCN(c3cccc(Cl)c3)CC2)cc1` (stereo not drawn) was tested. Which Ki did it give?
**A.** Its Ki is 360 nM.

**Q.** For `COc1ccc(OC)c(COCC(O)CN2CCN(c3ccccc3)CC2)c1` (stereo not drawn), which Ki is on record?
**A.** Its Ki is 2300 nM.

**Q.** How did the Ki turn out when `COc1ccc(OC)c(COCC(O)CN2CCN(c3cccc(Cl)c3)CC2)c1` (stereo not drawn) was run?
**A.** Its Ki is 65 nM.

**Q.** For `OC(COc1ccc2c(c1)CCC2)CN1CCN(c2ccc(Cl)cc2)CC1` (stereo not drawn), which Ki is on record?
**A.** Its Ki is 1520 nM.

**Q.** For `CC(=O)c1ccc(OCC(O)CN2CCN(c3cccc(Cl)c3)CC2)cc1` (stereo not drawn), which Ki is on record?
**A.** Its Ki is 471 nM.

**Q.** How did the Ki turn out when `CC(=O)c1ccc(OCC(O)CN2CCN(c3ccccc3)CC2)cc1` (stereo not drawn) was run?
**A.** Its Ki is 1970 nM.
